US4034111A, “Compositions of and new uses for N-acylanilinobutyric acids” (Byk Gulden Lomberg Chemische Fabrik GmbH, priority 1974, dated 1977)
Like-named read-outs stand apart in the source and are kept apart here.

What was measured:
[1] = tested on: Pancreas secretion; test: Pancreas secretion (rat), i.d. administration; assay type: in vivo; conditions: intraduodenal, as sodium salt; for ED (50% increase): Rattus norvegicus, read-out: Increase in pancreas secretion by 50 % maximum (dose); for minimal effective dose: read-out: Increase in pancreas secretion: significantly effective of [ ]
Method: (§1) 1. Pancreas secretion (rat and cat) was examined along the lines of the method described by C. J. Dockray [J. Physiol., 225, 679, (1972)] for the rat and of that described by R. M. Case et al [J. Physiol., 223, 669, (1972)] for the cat.
(§2) The pancreas secretion and the bile of narcotized rats (female, 250 to 300 g, stomachs not empty; narcosis: 5 ml/kg of a 25 % urethane solution= 1.25 g/kg i.m.) and cats (both sexes, stomachs empty, 3 to 4 kg; narcosis: laughing gas and 60 mg/kg i.p. chloralose and 120 mg/kg i.p. urethane; permanent infusion of 0.4 to 2 E/kg/hour secretine= 1 to 6 ml/animal/hour,pylorus ligature) were separately transferred to the outside. After an initial period of about 2 hours compounds to be examined were administered intravenously to some and intraduodenally to other animals (volume of injection rat/cat 1 ml/kg). The volume and, respectively, the protein content (amylase, lipase, trypsine) of the fraction for 30 minutes and 15 minutes, respectively, were determined by conventional methods (Boehringer Test Combination 15899).

[2] = tested on: heart force of the heart; test: Heart force (left ventricle pressure course) in narcotized cats; assay type: in vivo; conditions: Felis catus, iv; cat, i.v. administration, as sodium salt; read-out: Increase in heart force of the heart, effective of
Method: 3. The influence of the acylated anilinocarboxylic acids on heart force was determined along the lines of the method of W. Kroneberg et al. [Arzneimittelforschung, 22, 2 (1972)] by determination of the pressure course (isometrically) and pressure increase in the left heart ventricle upon intraveneous administration of the substance to narcotized cats.

[3] = tested on: circulation of blood in internal organs (liver, pancreas); test: Blood circulation through internal organs (liver, pancreas); assay type: in vivo; conditions: Felis catus, iv; cat, i.v. administration, as sodium salt; read-out: Increase in circulation of blood in internal organs (liver, pancreas), effective of
Method: 4. The blood circulation through the liver was determined by the arterial blood supply (Art. hepatica) along the lines of the method described by Scholtholt (Habilitationsschrift, faculty of medicine, University of Dusseldorf (1969) "Experimental studies with regard to the blood circulation through the liver").

[4] = tested on: serum enzyme increase (GOT/GPT) after allyl alcohol; test: Anti-hepatotoxic action: liver damage due to allyl alcohol, serum enzymes GOT/GPT; assay type: in vivo, rat (Sprague-Dawley, female); conditions: rat, oral, as sodium salt, serum 18 hours after allyl alcohol; read-out: Anti-hepatotoxic action: inhibition of serum enzyme increase by 25 % (GOT/GPT), damage due to allyl alcohol (dose)
Method: (§3) 5. The determination of the anti-hepatotoxic and hepatotropic effect, respectively, was carried out by damaging the liver with allyl alcohol or galactosamine.
(a) Damaging due to allyl alcohol was carried out in accordance with the method of Renker et al. [Arzneimittelforschung, 22, 1009 (1972)] and of H. Rauen and Schriewer [Arzneimittelforschung, 21, 1194 (1971)]: female Sprague-Dawley-rats (250 to 300 g) received 3 ml/kg of 1.25 % allyl alcohol solution orally […] the compounds to be tested and the solvent (control) had also been administered orally. 18 hours after the damage due to allyl alcohol a blood sample was taken from the tail (0.5 to 0.7 ml) with slight ether narcosis. The serum enzymes GOT (glutamate oxalacetate transaminase) and GPT (glutamate pyruvate transminase) were determined with the help of the Boehringer Test Combination (No. 15955/56)-- micromethod.

[5] = tested on: Pancreas secretion; test: Pancreas secretion (cat), pancreas liquid and protein (enzyme); assay type: in vivo; conditions: Felis catus, as sodium salt
Method: as §1, §2

[6] = tested on: stomach ulcers; test: Anti-ulcerogenity: suppression of acetylsalicylic acid-induced stomach ulcers in rats; assay type: in vivo, rat (Sprague-Dawley, female); conditions: 24 h, rat, oral, 30 min before 200 mg/kg acetylsalicylic acid, as sodium salt; for ED50: read-out: Suppression of the formation of stomach ulcers by 50% (dose); for ED100: read-out: Suppression of the formation of stomach ulcers by 100 % (dose)
Method: 2. Anti-ulcerogenity was determined according to the method described in German Offenlegungsschrift DT-OS 2,118,200. Female Sprague-Dawley rats weighing about 200 g were kept on empty stomach for 24 hours. Then the compounds to be tested were administered orally in the form of their sodium salts in aqueous solution. After 30 minutes 200 mg/kg acetylsalicyclic acid (in 10 ml/kg of an 1% tylose suspension) were administered to cause stomach ulcers. Control groups received the corresponding amount of water instead of the sodium salt solutions. The ulcus rate was determined microscopically 24 hours after the administration of acetylsalicyclic acid.

[7] = tested on: serum enzyme increase (GOT/GPT) after galactosamine; test: Anti-hepatotoxic action: liver damage due to galactosamine, serum enzymes GOT/GPT; assay type: in vivo, rat (Sprague-Dawley, male); conditions: rat, oral, as sodium salt, serum 24 hours after 200 mg/kg d-galactosamine hydrochloride i.p.; read-out: Anti-hepatotoxic action: inhibition of serum enzyme increase by 25 % (GOT/GPT), damage due to galactosamine (dose)
Method: as §3
(b) Damaging, due to galactosamine (galactosamine hepatitis) was carried out in accordance with the method described in Arzneimittelforschung 23 Nr. 1a, 159 (1973): Male Sprague-Dawley rats (220 to 300 g) received 200 mg/kg d-galactosamine hydrochloride (Merck, Darmstadt, article no. 4085) intraperitoneally (injection volume 2 ml/kg) 1 hour after oral administration of the compounds to be tested. 24 hours after the damage due to galactosamine a blood sample was taken from the vena orbitalis with slight ether narcosis. The serum enzymes were determined as described under a.

Row | SMILES | ED (50% increase) [1] [mg/kg] | minimal effective dose [1] [mg/kg] | minimal effective dose [2] [mg/kg] | minimal effective dose [3] [mg/kg] | ED25 [4] [mg/kg] | ED (100% increase) ([5]; intraduodenal, i.d. administration, read-out: Increase in pancreas secretion by 100 % maximum: pancreas liquid (dose)) [mg/kg] | ED (100% increase) ([5]; intraduodenal, i.d. administration, read-out: Increase in pancreas secretion by 100 % maximum: protein (enzyme) (dose)) [mg/kg] | ED (100% increase) ([5]; iv, i.v. administration, read-out: Increase in pancreas secretion by 100 % maximum: protein (enzyme) (dose)) [mg/kg] | ED50 [6] [mg/kg] | ED100 [6] [mg/kg] | ED25 [7] [mg/kg]
1 | CC(=O)N(CCCC(=O)O)c1cccc(Cl)c1 [(12), N-acetyl-γ-(m-chloroanilino)butyric acid] | ~1 | 0.1 | 2.5 | – | – | – | – | – | – | – | –
2 | O=C(O)CCCN(C(=O)c1ccc(Cl)cc1)c1ccc(O)cc1 [(11), N-(p-chlorobenzoyl)-γ-(p-hydroxyanilino)butyric acid] | ~0.7 | 0.5 | ~1 | 1 to 5 | ~10 | – | – | – | – | – | –
3 | COc1ccc(N(CCCC(=O)O)C(=O)c2ccc(Cl)cc2)cc1 [(3), N-(p-chlorobenzoyl)-γ-(p-anisidino)butyric acid] | 1 to 5 | 0.05 | 1 | 1 to 5 | 5 to 10 | ~10 | ~1 | < 10 | 1 to 5 | ~10 | ~20
4 | COc1ccc(N(CCCC(=O)O)C(=O)c2ccc(Cl)cc2)cc1OC [(7), N-(p-chlorobenzoyl)-γ-(3,4-dimethoxyanilino)butyric acid] | ~1 | ~0.1 | 1 to 5 | 1 | 50 | – | – | – | – | ~5 | ~20
5 | Cc1cccc(C)c1N(CCCC(=O)O)C(=O)c1ccc(Cl)cc1 [(9), N-(p-chlorobenzoyl)-γ-(2,6-dimethylanilino)butyric acid] | 0.2 to 0.5 | 0.01 | 1 to 5 | 1 | ~10 | – | – | – | 0.5 to 1 | 1 to 5 | 10 to 20
6 | CCOc1ccc(N(CCCC(=O)O)C(=O)c2ccc(Cl)cc2)cc1 [(4), N-(p-chlorobenzoyl)-γ-(p-phenetidino)butyric acid] | 0.1 to 0.5 | 0.05 | 1 | 1 to 5 | ~10 | – | – | – | – | ~15 | ~10
7 | Cc1cccc(C)c1N(CCCC(=O)O)C(=O)c1ccccc1Cl [(8), N-(o-chlorobenzoyl)-γ-(2,6-dimethylanilino)butyric acid] | ~1 | 0.01 | 1 | 1 | – | – | – | – | – | ~30 | ~20
8 | COc1ccc(N(CCCC(=O)O)C(=O)c2ccccc2)cc1 [(2), N-benzoyl-γ-(p-anisidino)butyric acid] | ~0.2 | 0.05 | – | – | 5 to 10 | – | – | – | – | 1.5 | ~50
